The subject of data set [1] is breast tumors induced by the administration of the carcinogen N-methyl-nitrosourea (NMU). Put plainly: MNU stimulated breast tumor model. Format: in vivo, Lewis rats. The source says: The following study determined the effect of a formulation prepared with a polymorph of 17α-ethynyl-androst-5-ene-3α,17β-diol (Crystalline Form III of Compound 1) on the rate of growth and incidence of breast tumors induced by the administration of the carcinogen N-methyl-nitrosourea (NMU). Additionally, the activity of Compound 1 was compared to TAMOXIFEN™ ((Z)-2-[4-(1,2-diphenylbut-1-enyl)phenoxy]-N,N-dimethyl-ethanamine), ARIMIDEX™ (anastrozole) and TAXOTERE™ (docetaxel), which are drugs currently used to treat breast cancer.
Seven week old female Lewis rats (150 animals, 104 required for the study) were anesthetized with isoflurane for NMU administration. NMU was the administered ip. at a dose of 50 mg/Kg. Mammary tumors that developed were measured using a vernier caliper with two axes of the tumor measured in cm. Treatment commenced using a liquid formulation of Compound 1, prepared by dissolving crystalline […] in vehicle, when rats have a tumor volume of 0.5 cm×0.5 cm (at about 12-20 week of age). Treatment continued for 28 consecutive days, followed by 28 days of observation.
The experimental groups were Negative control group (no treatment), Vehicle control group (30% cyclodextrin-sulfobutylether in water), two treatment groups (8 mg/rat and 4 mg/rat), three standard therapy groups using an estrogen blocker (TAMOXIFEN™), an aromatase inhibitor (ARIMIDEX™), a cytotoxic agent (TAXOTERE™) and a combination treatment group receiving Compound 1 (8 mg/kg) and TAXOTERE™.

The test system of data set [2] is LNCaP Cells. Put plainly: Cell cycle analysis of LNCaP cells (DAPI, cytometer). Format: cell-based. The note with it: 50 nM, four days, LNCaP cells in FBS or CSS. As for the experimental part:
(§1) LNCaP Cells (5×10^5) were seeded in phenol-red free RPMI with 5% hormone depleted charcoal stripped serum (CSS) in 6-well plates and allowed to adhere overnight, then cultured in fetal bovine serum (FBS) or CSS with or without 50 nM Compound 1 for four days. At the end of the incubation period, floating and adherent cells were harvested for cell cycle analysis. LNCaP cells were resuspended in a […] solution of 4,6-diamidino-2-phenylindole (DAPI) and 0.1% NP-40 in a Tris-buffered saline solution (pH 7.0) and analyzed using an Influx cytometer (Cytopiea, Seattle, Wash.). Analyses were performed with MultiCycle software (Phoenix Flow Systems, San Diego, Calif.). The Annexin V-FITC Apoptosis Detection Kit (Calbiochem, La Jolla, Calif.) was used according to the instructions of the manufacturer to detect apoptosis.

Data set [3] has as its system LNCaP tumor cells. Put plainly: AED-stimulated LNCaP tumor model, effect of dose on tumor incidence. The class given is in vivo, SCID mice. The conditions noted are these: for mean tumor volume in the animals that developed tumors: 28 days, vehicle 157 mm^3; for tumor incidence (compared to vehicle): daily for 28 days from 24 hours after tumor inoculation. How it is done: (§2) Castrated SCID mice (six week-old) were implanted with a 5 mg AED, 60-day time-release pellet (Innovative Labs, Sarasota Fla.). After three days, all mice were injected subcutaneously in the right flank with 100 μL of 7.5×10^6 LNCaP tumor cells in phenol red-free RPMI mixed 1:1 with Matrigel. Tumor volumes were measured weekly and calculated as a2×b/2 with a being the width and b the length of the tumor in millimeters (reported as mm^3).
To test the effect of dose on tumor incidence, a total of 48 castrated male SCID mice were implanted with LNCaP tumor cells as described, and the mice were randomly divided into 4 groups of 12 animals each to provide vehicle control (30% cyclodextrin-sulfobutylether in water) group and treatment groups using 4 mg/mouse/day, 1 mg/mouse/day, and 0.4 mg/mouse/day). Treatment groups used a liquid formulation prepared by dissolving a solid state form of 17α-ethynyl-androst-5-ene-3α,17β-diol (Compound 1) in vehicle, which provided 20 mg Compound 1 per mL in 30% cyclodextrin-sulfobutylether in water. The liquid formulation so prepared was administered 24 hours after tumor inoculation as a 200 μL intraperitoneal (ip) injection. All animals were dosed daily for 28 consecutive days and tumor volumes were measured weekly.
(§3) Statistical analysis: Time to first measurable tumor volume was analyzed via Kaplan-Meier product limit estimates, with the exact log-rank test applied to test for the significance of the difference. Reduction of tumor volume is defined as a reduction in volume of at least 20% of the baseline volume, persisting to the end of the study. To detect the difference between active and control group, Fisher's exact test and exact 95% Cl for the difference was applied. A tumor of non-measurable volume is a tumor that, with the methodology at hand, measures 0 to the end of the study. The growth rate of a tumor was also analyzed via the mixed model.

For data set [4], the system named is LNCaP Cells. Put plainly: Annexin V-FITC apoptosis detection in LNCaP cells. Format: cell-based. The note with it: 50 nM, four days. As for the experimental part:
as §1

In data set [5] the test system is established LNCaP tumors. Put plainly: AED-stimulated LNCaP tumor model, effect on established LNCaP tumors. The conditions noted are these: 4 mg/mouse/day once a day for three weeks. The class given is in vivo, SCID mice. How it is done: as §2
To test the effect of a Compound 1 on established LNCaP tumors, 36 castrated SCID mice received AED pellets and were inoculated with LNCaP tumors and monitored as described above. Once the tumors reach 15-25 mm^3, the mice were paired by tumor volume, and each mouse in a pair was assigned to the vehicle or 4 mg/mouse/day Compound 1 group. Animals were dosed once a day for three weeks.
as §3

Data set [6] is described as follows: Interconversion of crystalline forms in methanol-water (XRPD). Format: physicochemical. How it is done:
Form III Compound 1 (77.1 mg) was added to a glass vial, followed by MeOH (0.8 mL) and a stirring bar. The sample was placed in an oil bath at 65° C. and solids completely dissolved. Additional Form III was added so that excess solids remained and the mixture stirred for about 20 minutes. Additional MeOH (0.2 mL) was added and the mixture was hot filtered into a clean vial using a 0.2 μm nylon filter, and the filtrate was then placed in the oil bath at 65° C. Water (1 mL) was added and the mixture cooled to 20° C. over 2 hours. […] Form I was also produced from a slurry of Form III in 1:1 methanol water or 3:1 methanol:water that is seeded with samples having XRPD patterns of Form IV, Form V, Form VI, Form VII and Form VIII and stirred for 5 da at about 65° C. or 7 da at about 5° C.

Data set [7] is described as follows: Vapor stressing of melt-quenched amorphous Compound 1. The class given is physicochemical. As for the experimental part: Amorphous compound 1, with varying degrees of crystallinity was also obtained form melt-quenching Form III according to the following procedure. Form III was lightly crushed with a spatula in a vial that was then placed in an oilbath set at 175° C. A nitrogen stream was run through the vial and the vial kept in the oilbath until the sample had melted. The vial was then removed and quickly placed in a bath containing dry ice with acetone. The sample was placed in a freezer under desiccant and analyzed by XRPD for crystallinity.
The propensity of amorphous material to convert to various crystalline forms was studied by vapor stressing melt-quenched Compound 1, prepared from Form III by the immediately preceding procedure.

A short description of data set [8]: Reanalysis of crystalline forms after prolonged standing. Format: physicochemical. The source says: Thus, crystalline Form V of 17α-ethynyl-androstane-3α,17β-diol is an anhydrate (i.e., has no solvent in its crystal structure).
Prior to dissolution of Form VI for NMR analysis, the Form VI sample was washed with CCl4 to remove non-specifically absorbed surface solvent. Proton NMR spectroscopy thus indicates Form VI is a dioxane solvate, which is supported by the DTA/TGA data, and is most likely a mono dioxane solvate based upon integration of the δ 3.64 ppm resonance and the weight loss in TGA. After prolonged standing at ambient temperature and pressure, the Form VI sample was reanalyzed by DTA/TGA and proton NMR. […] Thus, desolvation of Form VI may occur if storage precautions are inadequate and may be accompanied by a polymorphic transition to a more thermodynamically stable form such as Form III.
Thus, crystalline Form VII of 17α-ethynyl-androstane-3α,17β-diol is most likely an anhydrate (i.e., has no solvent in its crystal structure).

Molecules are shown by their SMILES.

Turning to `C#C[C@]1(O)CC[C@H]2[C@@H]3CC[C@H]4C[C@H](O)CC[C@]4(C)[C@H]3CC[C@@]21C` [Compound 1, 17-Ethynyl-10R,13S-dimethyl-2,3,4,5S,6,7,8R,9S,10,11,12,13,14S,15,16,17-hexadecahydro-1H-cyclopenta[a]phenanthrene-3S,17S-diol], in data set [1] (28 consecutive days of treatment, 28 days of observation, p<0.001), the “time to a new tumor as compared to vehicle” value is recorded as “longer time to a new tumor”. In addition, the “time to new tumor compared with TAXOTERE” value in data set [1] (Compound 1 at 4 mg, p=0.042) was “outperformed TAXOTERE™”. For the same molecule, in data set [1] (Day 7 on: p<0.001), the “tumor burden by volume compared with vehicle” value was “less tumor burden than for the vehicle treated group”. Moreover, in data set [1] (from first day of dosing, vehicle 10 days), the “median time to new tumor” value is given as “at least 56 days”. For the same molecule, in data set [1] (from median times to new tumor), the “delay to the occurrence of a second tumor vs vehicle” value is reported as “at least a five fold delay”. In addition, the “number of cells in G1” value in data set [2] was “rise in the number of cells in G1”. Also, the “mean tumor volume in the animals that developed tumors” value was found to be 34 mm^3 in data set [3] (0.4 mg/mouse/day ip), 4 mm^3 in data set [3] (1 mg/mouse/day ip) and 0 mm^3 in data set [3] (4 mg/mouse/day ip). In addition, the “tumor incidence (compared to vehicle)” value in data set [3] (1 mg/mouse/day ip, p=0.006, n=11) is on record as “significant reduction in tumor incidence”; in data set [3] (4 mg/mouse/day ip, p<0.001, n=12), “significant reduction in tumor incidence”. Further, in data set [3] (all three dose groups (4, 1, 0.4 mg/mouse/day ip, 28 days)), the tumor volume result is reported as “decreases in tumor volume apparent”. In addition, the “time to a measurable tumor volume” value in data set [3] (three treated groups (4, 1, 0.4 mg/mouse/day ip), p<0.01) is recorded as “statistically significant delay”. Moreover, in data set [4], the “percentage of apoptotic LNCaP cells” value is on record as “increase in the percentage of apoptotic LNCaP cells”. The “mice with a tumor that became non-measurable by Day 15” value in data set [5] was “two”. Further, in data set [5] (tumors 15-25 mm^3 at start, p<0.001 vs vehicle), the “growth of established tumors (tumor volume)” value is listed as “significantly blocked the growth of tumors”. Besides, the “percent of mice that reduced their tumor volumes by 20% or more” value in data set [5] (vs vehicle, p<0.0294) was “significantly greater percent of mice”.

For `C#C[C@]1(O)CC[C@H]2[C@@H]3CC[C@H]4C[C@H](O)CC[C@]4(C)[C@H]3CC[C@@]21C` [Form I, 17α-ethynyl-5α-androstane-3α,17β-diol], the “relative stability of polymorphic forms” value in data set [6] (methanol-water, slurry seeded with Forms IV-VIII, 5 da at about 65° C. or 7 da at about 5° C.) was “most stable polymorphic form in methanol-water”.

For `C#C[C@]1(O)CC[C@H]2[C@@H]3CC[C@H]4C[C@H](O)CC[C@]4(C)[C@H]3CC[C@@]21C` [Form III, 17α-ethynyl-5α-androstane-3α,17β-diol], the “relative thermodynamic stability of polymorphic forms” value in data set [7] (provided not exposed to methanol-water) is “most thermodynamically stable polymorphic form”. The “conversion of crystalline form (XRPD)” value in data set [6] (dissolved in MeOH at 65° C., water added, cooled to 20° C. over 2 hours, also slurry in 1:1 or 3:1 methanol:water) was “has converted to Form I”.

Consider `C#C[C@]1(O)CC[C@H]2[C@@H]3CC[C@H]4C[C@H](O)CC[C@]4(C)[C@H]3CC[C@@]21C` [Form V, 17α-ethynyl-5α-androstane-3α,17β-diol], for which the “polymorphic transition on prolonged standing (XRPD reanalysis)” value in data set [8] (prolonged standing) is “undergone a polymorphic transition to Form III”.

For `C#C[C@]1(O)CC[C@H]2[C@@H]3CC[C@H]4C[C@H](O)CC[C@]4(C)[C@H]3CC[C@@]21C` [Form VI, 17α-ethynyl-5α-androstane-3α,17β-diol], the “desolvation on standing (DTA/TGA reanalysis)” value in data set [8] (prolonged standing at ambient temperature and pressure) is “no TGA weight loss and no desolvation events in DTA”.

For `C#C[C@]1(O)CC[C@H]2[C@@H]3CC[C@H]4C[C@H](O)CC[C@]4(C)[C@H]3CC[C@@]21C` [amorphous Compound 1, 17-ethynyl-5α-androstane-3α,17β-diol], the “conversion of amorphous material to crystalline form” value in data set [7] (vapor stressing at high humidity) was “will convert back to Form III”.

Source of the values: patent US9314471B2, “Methods of preparing pharmaceutical solid state forms” (NeurMedix, Inc., priority 2008, dated 2016).
